Numbers after ± are expanded uncertainties.
What was measured:
[1] = Liquid; for mass density: 298.15 K, 101.33 kPa, Vibrating tube method; for Normal boiling temperature: Ebulliometric method (Recirculating still)
[2] = refractive index (Na D-line) (dimensionless); details: 298.15 K; 101.33 kPa; Liquid; Standard Abbe refractometry
[3] = xn = mol fraction of the nth substance listed; details: 298.15 K, 101.33 kPa, Liquid, Vibrating tube method
[4] = excess molar enthalpy (molar enthalpy of mixing); xn = mol fraction of the nth substance listed; details: 298.15 K, 101.33 kPa, Liquid, Calvet calorimetry

CCC(=O)OC [methyl propanoate]
Details	Normal boiling temperature [°C]	mass density [kg/m3]	refractive index
[1]	78.50 ± 0.2	908.59 ± 0.47	–
[2]	–	–	1.3745 ± 0.0008

COC(C)=O [methyl ethanoate]
Details	Normal boiling temperature [°C]	mass density [kg/m3]	refractive index
[1]	56.70 ± 0.2	927.14 ± 0.47	–
[2]	–	–	1.3589 ± 0.0008

CCCCC(=O)OC [methyl pentanoate] + CCCCCCC
[3]
Details	mass density [kg/m3]
x1 = 0.0172	682.12 ± 0.74
x1 = 0.0613	689.72 ± 0.76
x1 = 0.1404	703.9 ± 0.77
x1 = 0.2074	716.09 ± 0.8
x1 = 0.2867	731.09 ± 0.82
x1 = 0.3552	744.33 ± 0.84
x1 = 0.4135	755.77 ± 0.86
x1 = 0.4931	771.88 ± 0.88
x1 = 0.5619	786.14 ± 0.91
x1 = 0.631	800.74 ± 0.93
x1 = 0.7038	816.52 ± 0.95
x1 = 0.7607	828.99 ± 0.98
x1 = 0.8392	846.84 ± 1
x1 = 0.9149	864.2 ± 1
x1 = 0.9531	873.23 ± 1.1
x1 = 0.9836	880.67 ± 1.1

COC(C)=O [methyl ethanoate] + CCCCCCC
[3]
Details	mass density [kg/m3]
x1 = 0.0676	686.77 ± 0.36
x1 = 0.1019	690.81 ± 0.37
x1 = 0.1594	698.12 ± 0.39
x1 = 0.2497	710.82 ± 0.42
x1 = 0.3137	721.1 ± 0.46
x1 = 0.4011	736.76 ± 0.49
x1 = 0.4829	753.42 ± 0.54
x1 = 0.5498	768.76 ± 0.59
x1 = 0.6215	786.97 ± 0.64
x1 = 0.6765	802.41 ± 0.69
x1 = 0.7204	815.61 ± 0.74
x1 = 0.7841	836.35 ± 0.79
x1 = 0.8342	854.72 ± 0.86
x1 = 0.8837	873.99 ± 0.92
x1 = 0.9248	891.52 ± 0.99
x1 = 0.9632	908.98 ± 1

CCC(=O)OC [methyl propanoate] + CCCCCCC
[3]
Details	mass density [kg/m3]
x1 = 0.064	687.65 ± 0.62
x1 = 0.1117	694.35 ± 0.64
x1 = 0.1561	700.97 ± 0.69
x1 = 0.2628	718.15 ± 0.74
x1 = 0.365	736.5 ± 0.8
x1 = 0.4343	750.1 ± 0.88
x1 = 0.5113	766.46 ± 0.94
x1 = 0.5683	779.43 ± 1
x1 = 0.6351	795.65 ± 1.1
x1 = 0.7017	812.9 ± 1.1
x1 = 0.7543	827.61 ± 1.2
x1 = 0.8136	845.12 ± 1.3
x1 = 0.8664	861.73 ± 1.4
x1 = 0.903	873.85 ± 1.4
x1 = 0.9689	896.98 ± 1.5

CCCC(=O)OC [methyl butanoate] + CCCCCCC
[3]
Details	mass density [kg/m3]
x1 = 0.0337	684.36 ± 0.67
x1 = 0.0689	689.75 ± 0.68
x1 = 0.102	694.93 ± 0.7
x1 = 0.1531	703.25 ± 0.73
x1 = 0.2487	719.6 ± 0.76
x1 = 0.3261	733.58 ± 0.8
x1 = 0.3824	744.29 ± 0.84
x1 = 0.4586	759.5 ± 0.88
x1 = 0.5333	775.25 ± 0.93
x1 = 0.6085	791.88 ± 0.97
x1 = 0.6618	804.18 ± 1
x1 = 0.7161	817.1 ± 1.1
x1 = 0.7869	834.67 ± 1.1
x1 = 0.8394	848.24 ± 1.1
x1 = 0.8882	861.22 ± 1.2
x1 = 0.9255	871.41 ± 1.2

COC=O [methyl methanoate] + CCCCCCC
Details	excess molar enthalpy [kcal/mol]	mass density [kg/m3]
[3], x1 = 0.042	–	682.76 ± 0.3
[3], x1 = 0.1206	–	689.96 ± 0.33
[3], x1 = 0.2235	–	702.15 ± 0.38
[3], x1 = 0.3614	–	723.34 ± 0.44
[3], x1 = 0.4593	–	741.73 ± 0.51
[3], x1 = 0.5364	–	759.27 ± 0.59
[3], x1 = 0.6079	–	778.2 ± 0.66
[3], x1 = 0.6651	–	795.64 ± 0.78
[3], x1 = 0.7799	–	837.8 ± 0.87
[3], x1 = 0.8321	–	861.36 ± 1
[3], x1 = 0.8729	–	882.18 ± 1.2
[3], x1 = 0.911	–	904.19 ± 1.3
[3], x1 = 0.946	–	926.26 ± 1.4
[3], x1 = 0.9736	–	945.92 ± 1.6
[3], x1 = 0.9935	–	961.3 ± 1.6
[4], x1 = 0.0673	0.123 ± 0.00382	–
[4], x1 = 0.1535	0.268 ± 0.00454	–
[4], x1 = 0.2499	0.403 ± 0.0055	–
[4], x1 = 0.3332	0.484 ± 0.00621	–
[4], x1 = 0.4008	0.52 ± 0.00645	–
[4], x1 = 0.4555	0.538 ± 0.00669	–
[4], x1 = 0.5004	0.546 ± 0.00669	–
[4], x1 = 0.5354	0.546 ± 0.00669	–
[4], x1 = 0.5709	0.545 ± 0.00669	–
[4], x1 = 0.6389	0.521 ± 0.00645	–
[4], x1 = 0.6745	0.506 ± 0.00645	–
[4], x1 = 0.7144	0.479 ± 0.00621	–
[4], x1 = 0.7527	0.452 ± 0.00598	–
[4], x1 = 0.794	0.412 ± 0.00574	–
[4], x1 = 0.8313	0.363 ± 0.00526	–
[4], x1 = 0.8721	0.303 ± 0.00502	–
[4], x1 = 0.9068	0.234 ± 0.00502	–
[4], x1 = 0.9426	0.157 ± 0.00502	–
[4], x1 = 0.973	0.0807 ± 0.00502	–

CCCCCCC [heptane]
Details	Normal boiling temperature [°C]	mass density [kg/m3]	refractive index
[1]	98.20 ± 0.49	679.3 ± 0.45	–
[2]	–	–	1.3853 ± 0.0007
